{"source": "ChEMBL document CHEMBL5143615", "about": "“Novel 2-aryl-4-aryloxyquinoline-based fungistatics for Mucor circinelloides. Biological evaluation of activity, QSAR and docking study” (Bioorg Med Chem Lett, 2022)", "type_in_all_cases": "functional", "parameters_in_all_cases": "scale not given: the % may be the effect or the level left", "key": {"Mucor circinelloides [1]": {"tested_on": "Mucor circinelloides", "assay": "Antifungal activity against Mucor circinelloides R7B wild type strain assessed as reduction in spore germination at 100 ug/ml relative to control", "settings": "dose 100 µg/ml"}, "Mucor circinelloides [2]": {"tested_on": "Mucor circinelloides", "assay": "Antifungal activity against Mucor circinelloides M5 strain assessed as reduction in spore germination at 100 ug/ml relative to control", "settings": "dose 100 µg/ml"}, "Mucor circinelloides [3]": {"tested_on": "Mucor circinelloides", "assay": "Antifungal activity against Mucor circinelloides M5 strain assessed as reduction in spore germination at 50 ug/ml relative to control", "settings": "dose 50 µg/ml"}, "Mucor circinelloides [4]": {"tested_on": "Mucor circinelloides", "assay": "Antifungal activity against Mucor circinelloides R7B wild type strain assessed as reduction in spore germination at 25 ug/ml relative to control", "settings": "dose 25 µg/ml"}, "Mucor circinelloides [5]": {"tested_on": "Mucor circinelloides", "assay": "Antifungal activity against Mucor circinelloides R7B wild type strain assessed as reduction in spore germination at 50 ug/ml relative to control", "settings": "dose 50 µg/ml"}, "Mucor circinelloides [6]": {"tested_on": "Mucor circinelloides", "assay": "Antifungal activity against Mucor circinelloides M5 strain assessed as reduction in spore germination at 150 ug/ml relative to control", "settings": "dose 150 µg/ml"}, "Mucor circinelloides [7]": {"tested_on": "Mucor circinelloides", "assay": "Antifungal activity against Mucor circinelloides R7B wild type strain assessed as reduction in spore germination at 150 ug/ml relative to control", "settings": "dose 150 µg/ml"}, "Mucor circinelloides [8]": {"tested_on": "Mucor circinelloides", "assay": "Antifungal activity against Mucor circinelloides M5 strain assessed as reduction in spore germination at 25 ug/ml relative to control", "settings": "dose 25 µg/ml"}}}
{"smiles": "Cc1cccc(-c2cc(Oc3ccc([N+](=O)[O-])cc3)c3ccccc3n2)c1", "values": [{"measurement": "Activity", "setting": "Mucor circinelloides [1]", "value": 98.1, "unit": "%"}, {"measurement": "Activity", "setting": "Mucor circinelloides [2]", "value": 98.1, "unit": "%"}]}
{"smiles": "Clc1ccc(-c2cc(Oc3ccccc3)c3ccccc3n2)cc1Cl", "values": [{"measurement": "Activity", "setting": "Mucor circinelloides [1]", "value": 60.8, "unit": "%"}, {"measurement": "Activity", "setting": "Mucor circinelloides [2]", "value": 57.8, "unit": "%"}]}
{"smiles": "c1ccc(Oc2cc(-c3ccccc3)nc3ccccc23)cc1", "values": [{"measurement": "Activity", "setting": "Mucor circinelloides [1]", "value": 97.4, "unit": "%"}, {"measurement": "Activity", "setting": "Mucor circinelloides [2]", "value": 97.9, "unit": "%"}]}
{"smiles": "Clc1ccc(-c2cc(Oc3ccccc3)c3ccccc3n2)cc1", "values": [{"measurement": "Activity", "setting": "Mucor circinelloides [1]", "value": 36.1, "unit": "%"}, {"measurement": "Activity", "setting": "Mucor circinelloides [2]", "value": 32.3, "unit": "%"}]}
{"smiles": "O=[N+]([O-])c1ccc(Oc2cc(-c3ccc(Cl)cc3)nc3ccccc23)cc1", "values": [{"measurement": "Activity", "setting": "Mucor circinelloides [1]", "value": 81.7, "unit": "%"}, {"measurement": "Activity", "setting": "Mucor circinelloides [2]", "value": 82.9, "unit": "%"}]}
{"smiles": "COc1ccc(-c2cc(Oc3ccccc3)c3ccccc3n2)cc1OC", "values": [{"measurement": "Activity", "setting": "Mucor circinelloides [1]", "value": 98.1, "unit": "%"}, {"measurement": "Activity", "setting": "Mucor circinelloides [2]", "value": 98.2, "unit": "%"}]}
{"smiles": "Cc1cc(C)cc(-c2ccc3ccccc3n2)c1", "values": [{"measurement": "Activity", "setting": "Mucor circinelloides [1]", "value": 84.9, "unit": "%"}, {"measurement": "Activity", "setting": "Mucor circinelloides [2]", "value": 87.6, "unit": "%"}]}
{"smiles": "Fc1ccc(-c2cc(Oc3ccccc3)c3ccccc3n2)cc1", "values": [{"measurement": "Activity", "setting": "Mucor circinelloides [1]", "value": 39.8, "unit": "%"}, {"measurement": "Activity", "setting": "Mucor circinelloides [2]", "value": 38.6, "unit": "%"}]}
{"smiles": "O=[N+]([O-])c1ccc(Oc2cc(-c3ccc(Cl)c(Cl)c3)nc3ccccc23)cc1", "values": [{"measurement": "Activity", "setting": "Mucor circinelloides [1]", "value": 83.9, "unit": "%"}, {"measurement": "Activity", "setting": "Mucor circinelloides [2]", "value": 85.9, "unit": "%"}]}
{"smiles": "COc1cc(-c2ccc(C)cc2)nc2ccccc12", "values": [{"measurement": "Activity", "setting": "Mucor circinelloides [1]", "value": 81.9, "unit": "%"}, {"measurement": "Activity", "setting": "Mucor circinelloides [2]", "value": 84.9, "unit": "%"}]}
{"smiles": "c1ccc(-c2ccc3ccccc3n2)cc1", "note": "[2-PHENYLQUINOLINE]", "values": [{"measurement": "Activity", "setting": "Mucor circinelloides [1]", "value": 98.1, "unit": "%"}, {"measurement": "Activity", "setting": "Mucor circinelloides [2]", "value": 98.2, "unit": "%"}]}
{"smiles": "c1ccc(Oc2cc(-c3ccc4c(c3)OCO4)nc3ccccc23)cc1", "values": [{"measurement": "Activity", "setting": "Mucor circinelloides [3]", "value": 52.8, "unit": "%"}, {"measurement": "Activity", "setting": "Mucor circinelloides [1]", "value": 28.2, "unit": "%"}, {"measurement": "Activity", "setting": "Mucor circinelloides [4]", "value": 74.2, "unit": "%"}, {"measurement": "Activity", "setting": "Mucor circinelloides [5]", "value": 47.6, "unit": "%"}, {"measurement": "Activity", "setting": "Mucor circinelloides [6]", "value": 23.4, "unit": "%"}, {"measurement": "Activity", "setting": "Mucor circinelloides [7]", "value": 21.6, "unit": "%"}, {"measurement": "Activity", "setting": "Mucor circinelloides [2]", "value": 29.5, "unit": "%"}, {"measurement": "Activity", "setting": "Mucor circinelloides [8]", "value": 69.7, "unit": "%"}]}
{"smiles": "COc1cc(-c2cc(F)cc(F)c2)nc2ccccc12", "values": [{"measurement": "Activity", "setting": "Mucor circinelloides [1]", "value": 32.8, "unit": "%"}, {"measurement": "Activity", "setting": "Mucor circinelloides [2]", "value": 29.7, "unit": "%"}]}
{"smiles": "O=[N+]([O-])c1ccc(Oc2cc(-c3cccc(Cl)c3)nc3ccccc23)cc1", "values": [{"measurement": "Activity", "setting": "Mucor circinelloides [1]", "value": 32.7, "unit": "%"}, {"measurement": "Activity", "setting": "Mucor circinelloides [2]", "value": 21.9, "unit": "%"}]}
{"smiles": "COc1cc(-c2ccc(Cl)cc2)nc2ccccc12", "values": [{"measurement": "Activity", "setting": "Mucor circinelloides [1]", "value": 98.1, "unit": "%"}, {"measurement": "Activity", "setting": "Mucor circinelloides [2]", "value": 97.3, "unit": "%"}]}
{"smiles": "Fc1cc(F)cc(-c2ccc3ccccc3n2)c1", "values": [{"measurement": "Activity", "setting": "Mucor circinelloides [1]", "value": 57.5, "unit": "%"}, {"measurement": "Activity", "setting": "Mucor circinelloides [2]", "value": 59.5, "unit": "%"}]}
{"smiles": "COc1cc(-c2ccc(F)cc2)nc2ccccc12", "values": [{"measurement": "Activity", "setting": "Mucor circinelloides [3]", "value": 47.9, "unit": "%"}, {"measurement": "Activity", "setting": "Mucor circinelloides [1]", "value": 17.1, "unit": "%"}, {"measurement": "Activity", "setting": "Mucor circinelloides [4]", "value": 73.1, "unit": "%"}, {"measurement": "Activity", "setting": "Mucor circinelloides [5]", "value": 60.3, "unit": "%"}, {"measurement": "Activity", "setting": "Mucor circinelloides [6]", "value": 14.9, "unit": "%"}, {"measurement": "Activity", "setting": "Mucor circinelloides [7]", "value": 12.6, "unit": "%"}, {"measurement": "Activity", "setting": "Mucor circinelloides [2]", "value": 20.6, "unit": "%"}, {"measurement": "Activity", "setting": "Mucor circinelloides [8]", "value": 78.4, "unit": "%"}]}
{"smiles": "O=[N+]([O-])c1ccc(Oc2cc(-c3cccc(C(F)(F)F)c3)nc3ccccc23)cc1", "values": [{"measurement": "Activity", "setting": "Mucor circinelloides [1]", "value": 32.8, "unit": "%"}, {"measurement": "Activity", "setting": "Mucor circinelloides [2]", "value": 29.7, "unit": "%"}]}
{"smiles": "Clc1cccc(-c2cc(Oc3ccccc3)c3ccccc3n2)c1", "values": [{"measurement": "Activity", "setting": "Mucor circinelloides [1]", "value": 89.1, "unit": "%"}, {"measurement": "Activity", "setting": "Mucor circinelloides [2]", "value": 85.6, "unit": "%"}]}
{"smiles": "COc1cc(-c2ccc(Cl)c(Cl)c2)nc2ccccc12", "values": [{"measurement": "Activity", "setting": "Mucor circinelloides [1]", "value": 96.1, "unit": "%"}, {"measurement": "Activity", "setting": "Mucor circinelloides [2]", "value": 93.7, "unit": "%"}]}
{"smiles": "O=[N+]([O-])c1ccc(Oc2cc(-c3ccccc3)nc3ccccc23)cc1", "values": [{"measurement": "Activity", "setting": "Mucor circinelloides [1]", "value": 98.1, "unit": "%"}, {"measurement": "Activity", "setting": "Mucor circinelloides [2]", "value": 98.2, "unit": "%"}]}
{"smiles": "COc1cc(-c2cccc(C(F)(F)F)c2)nc2ccccc12", "values": [{"measurement": "Activity", "setting": "Mucor circinelloides [1]", "value": 88.9, "unit": "%"}, {"measurement": "Activity", "setting": "Mucor circinelloides [2]", "value": 89.7, "unit": "%"}]}
{"smiles": "COc1cc(-c2ccccc2)nc2ccccc12", "values": [{"measurement": "Activity", "setting": "Mucor circinelloides [1]", "value": 97.8, "unit": "%"}, {"measurement": "Activity", "setting": "Mucor circinelloides [2]", "value": 95.8, "unit": "%"}]}
{"smiles": "FC(F)(F)c1ccc(Oc2cc(-c3cccc(Cl)c3)nc3ccccc23)cc1", "values": [{"measurement": "Activity", "setting": "Mucor circinelloides [1]", "value": 42.2, "unit": "%"}, {"measurement": "Activity", "setting": "Mucor circinelloides [2]", "value": 38.3, "unit": "%"}]}
{"smiles": "COc1ccc(-c2cc(OC)c3ccccc3n2)cc1OC", "values": [{"measurement": "Activity", "setting": "Mucor circinelloides [1]", "value": 97.1, "unit": "%"}, {"measurement": "Activity", "setting": "Mucor circinelloides [2]", "value": 96.2, "unit": "%"}]}
{"smiles": "COc1ccc(-c2cc(Oc3ccccc3)c3ccccc3n2)cc1", "values": [{"measurement": "Activity", "setting": "Mucor circinelloides [1]", "value": 94.3, "unit": "%"}, {"measurement": "Activity", "setting": "Mucor circinelloides [2]", "value": 92.1, "unit": "%"}]}
